The test deals with T1, wild type (wt)-Xenopus laevis Aurora B/INCENP complex (Xenopus laevis, UniProt Q6DE08).
T1 construct: Purified (wt)-Xenopus laevis Aurora B^60-361/INCENP^790-847 complex was stored at −80° C; GST (cleaved yes); made in house; host or cells: E. coli BL21(DE3) with pUBS520 helper plasmid
The test can be described thus: Radioactive kinase assay using wt Xenopus laevis Aurora B/INCENP complex. It is filed as biochemical. Particulars: 100 μM ATP.

Consider 5 molecules from US20130004481A1, “ANTICANCER THERAPY” (BOEHRINGER INGELHEIM INTERNATIONAL GMBH, priority 2011, published 2013).

T1 sequence (Q6DE08 60-361): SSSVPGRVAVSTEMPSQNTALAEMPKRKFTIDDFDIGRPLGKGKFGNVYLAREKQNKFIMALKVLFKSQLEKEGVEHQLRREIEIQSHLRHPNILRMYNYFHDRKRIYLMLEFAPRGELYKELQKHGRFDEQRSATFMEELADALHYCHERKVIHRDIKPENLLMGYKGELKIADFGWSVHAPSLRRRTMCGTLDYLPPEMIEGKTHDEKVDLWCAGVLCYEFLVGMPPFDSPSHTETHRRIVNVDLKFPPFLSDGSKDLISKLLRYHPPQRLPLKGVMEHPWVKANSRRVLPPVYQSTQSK
T1 sequence (O13024 790-847 partner limits assumed): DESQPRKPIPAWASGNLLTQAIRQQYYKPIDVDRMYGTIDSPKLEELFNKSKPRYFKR
Method: Radioactive Kinase Assay Using a Wild Type (wt)-Xenopus laevis Aurora B/INCENP Complex:
The kinase assays are run in the presence of 100 μM ATP using 10 μM of a substrate peptide. pAUB-IN847 was used to transform the E. coli strain BL21(DE3) containing the pUBS520 helper plasmid. Both proteins and their mutants are expressed and purified under essentially identical conditions. Protein expression is induced with 0.3 mM IPTG at an OD600 of 0.45-0.7. Expression is then continued for about 12-16 hours at 23-25° C. with agitation. […] 20-30 ml lysis buffer are used per liter of E. coli culture. Cells are lysed by sonication, and the lysates cleared by centrifugation at 12000 rpm for 45-60 min on a JA20 rotor. The supernatants are incubated with 300 μl of GST Sepharose Fast Flow (Amersham Biosciences) per liter of bacterial culture. The resin is first washed with PBS buffer and finally equilibrated with lysis buffer. After a 4-5 hour agitation at 4° C., the beads are washed with 30 volumes of lysis buffer, and then equilibrated with 30 volumes of cleavage buffer (50 mM Tris pH 7.6, 150 mM NaCl, 1 mM DTT, 1 mM EDTA). To cleave the GST from Aurora B, 10 units of Prescission protease (Amersham Biosciences) per milligram of substrate are added and the incubation is protracted for 16 hours at 4° C. The supernatant, which contains the cleaved product, is collected and loaded onto a 6 ml Resource Q column (Amersham Biosciences) equilibrated with Ion Exchange buffer (50 mM Tris pH 7.6, 150 mM NaCl, 1 mM DTT, 1 mM EDTA). The Aurora B/INCENP complex is collected in the flow through of the column. The flow-through of the Resource Q column is concentrated and loaded onto a Superdex 200 size-exclusion chromatography (SEC) column equilibrated with SEC buffer (Tris HCl 10 mM pH 7.6, NaCl 150 mM, DTT 1 mM, EDTA 1 mM). […] The final yield is about 1-2 mg of pure complex per liter of bacteria.
Assay conditions: Enzyme activity was assayed in the presence or absence of serial inhibitor dilutions.
Data analysis: Inhibitor concentrations were transformed to logarithmic values and the raw data were normalized. These normalized values were used to calculate the IC50 values. […] Each microtiter plate contained internal controls, such as blank, maximum reaction and historical reference compound.

As a reminder, the IC50 is the concentration needed to halve the response being measured. For `CCNC(=O)C#Cc1ccc2c(c1)NC(=O)/C2=C(\Nc1ccc(N2CCN(C)CC2)cc1)c1ccccc1` [Compound 1, N-ethyl-3-[3-[[4-(4-methylpiperazin-1-yl)anilino]-phenylmethylidene]-2-oxo-1H-indol-6-yl]prop-2-ynamide], the IC50 is 2 nM. As for `CN(C)Cc1ccc(N/C(=C2\C(=O)Nc3cc(C#CC(=O)NCC(F)F)ccc32)c2ccccc2)cc1` [Compound 2, N-(2,2-difluoroethyl)-3-[3-[[4-(dimethylaminomethyl)anilino]-phenylmethylidene]-2-oxo-1H-indol-6-yl]prop-2-ynamide], the IC50 stood at 7 nM. Consider `O=C(C#Cc1ccc2c(c1)NC(=O)/C2=C(\Nc1ccc(CN2CCCC2)cc1)c1ccccc1)NCC(F)F` [Compound 3, N-(2,2-difluoroethyl)-3-[2-oxo-3-[phenyl-[4-(pyrrolidin-1-ylmethyl)anilino]methylidene]-1H-indol-6-yl]prop-2-ynamide], for which the IC50 was 4 nM. Then `O=C(C#Cc1ccc2c(c1)NC(=O)/C2=C(\Nc1ccc(CN2CCCC2)cc1)c1ccccc1)NCCF` [Compound 4, N-(2-fluoroethyl)-3-[2-oxo-3-[phenyl-[4-(pyrrolidin-1-ylmethyl)anilino]methylidene]-1H-indol-6-yl]prop-2-ynamide], with 5 nM. Then `CCNC(=O)C#Cc1ccc2c(c1)NC(=O)/C2=C(\Nc1ccc(CN(C)C)cc1)c1ccccc1` [Compound 6, 3-[3-[[4-(dimethylaminomethyl)anilino]-phenylmethylidene]-2-oxo-1H-indol-6-yl]-N-ethylprop-2-ynamide], with 3 nM.
